In publication PMC3656107, “Polymorphisms in the F8 Gene and MHC-II Variants as Risk Factors for the Development of Inhibitory Anti-Factor VIII Antibodies during the Treatment of Hemophilia A: A Computational Assessment” (PLoS Computational Biology, 2013):
Values joined by “and” are separate entries in the source; they are usually repeats but may differ in a detail not shown here. Identical values can stand only once.

Legend:
[1] = molecular target: T1, MHC-II DRB1*03:01 (Homo sapiens, UniProt P01903+P01911, A100K/A102G/A103R/A169T/F55Y/I96L/K41T/L162R/M171V/P40S/Q125H/Q178H/Q39Y/R42S/S66N/T106N/T262R/W38E/Y61H); test: Cell-free REVEAL class II binding assay; conditions: signal of test peptide as percentage of allele-specific positive control peptide, fluorescence, conformation-specific monoclonal antibody
Text: (§1) We used a proprietary high throughput, REVEAL binding assay (ProImmune, www.proimmune.com) to estimate the binding of individual test peptides to the following MHC-II variants: DRB1*03:01, DRB1*04:01, DRB1*07:01, DRB1*11:01, DRB1*15:01 and DRB1*15:03 [28]. Detection of a peptide binding to each MHC-II protein is based on the presence or absence of the native conformation of the MHC-peptide complex. The peptide-MHC-II complex is detected by an increase in a fluorescence signal due to the binding of a specific monoclonal antibody. Each test-peptide is given a score relative to a positive control peptide, which is a known T-cell epitope for that MHC-II molecule. The score is reported quantitatively as a percentage of the signal generated by the test peptide compared with the positive control peptide. Assay performance is evaluated by including in each set of measurements an intermediate control peptide which is known to bind the MHC-II molecule but with a lower affinity than the positive control peptide. Note that the positive control peptide used to determine the binding score is different from the positive control peptides depicted in the figures, which are known T-cell epitopes identified in the FVIII molecule.

[2] = molecular target: T2, MHC-II DRB1*04:01 (Homo sapiens, UniProt P01903+P01911, A100K/A169T/F76Y/I96L/K127E/L162R/M171V/N62H/P40V/Q125Y/R42H/S133A/S149N/S66Y/V115G/V209L/W38E); test: Cell-free REVEAL class II binding assay; conditions: signal of test peptide as percentage of allele-specific positive control peptide, fluorescence, conformation-specific monoclonal antibody
Text: as §1

[3] = molecular target: T3, MHC-II DRB1*07:01 (Homo sapiens, UniProt P01903+P01911, A100R/A102G/A103Q/D57E/D86V/E43K/F76Y/K127E/L162R/M171V/P40G/Q125H/Q99D/R33Q/R42Y/R54Q/S133A/S66F/T210M/V115G/Y107V/Y59L/Y89S); test: Cell-free REVEAL class II binding assay; conditions: signal of test peptide as percentage of allele-specific positive control peptide, fluorescence, conformation-specific monoclonal antibody
Text: as §1

[4] = molecular target: T4, MHC-II DRB1*11:01 (Homo sapiens, UniProt P01903+P01911, A100R/A169T/A87E/I96F/K41T/L162R/M171V/P40S/Q125H/Q178H/Q39Y/Q99D/R42S/S66Y/T262R/V115G/W38E); test: Cell-free REVEAL class II binding assay; conditions: signal of test peptide as percentage of allele-specific positive control peptide, fluorescence, conformation-specific monoclonal antibody
Text: as §1

[5] = molecular target: T5, MHC-II DRB1*15:01 (Homo sapiens, UniProt P01903+P01911); test: Cell-free REVEAL class II binding assay; conditions: signal of test peptide as percentage of allele-specific positive control peptide, fluorescence, conformation-specific monoclonal antibody
T5 construct: purchased ProImmune
Text: as §1

[6] = molecular target: T6, MHC-II DRB1*15:03 (Homo sapiens, UniProt P01903+P01911, Y59H); test: Cell-free REVEAL class II binding assay; conditions: signal of test peptide as percentage of allele-specific positive control peptide, fluorescence, conformation-specific monoclonal antibody
T6 construct: purchased ProImmune
Text: as §1

[7] = molecular target: T1, MHC-II DRB1*03:01; test: Cell-free REVEAL class II stability assay; conditions: half-life of peptide-MHC-II complex (h, capped at 120) x Binding Score / 100, conformational ELISA
Protocol: (§2) We measured the half-life of each peptide-MHC-II complex using REVEAL peptide-MHC affinity assays developed by ProImmune Ltd. (Oxford, UK). On-rates of peptides were measured over a 96-hr period at 10°C. A unique positive control peptide was used for each MHC-II allele. Samples of assembling peptide-MHC complexes were taken at defined time points and snap-frozen in liquid nitrogen prior to analysis. Assembly of peptide-MHC complexes was detected using a conformational ELISA involving an anti-HLA antibody. On-rates were calculated by fitting data to a one-phase association curve: [drawing 1] To determine the off-rates of the peptides, samples of dissociating complexes were taken at defined time points and frozen in liquid nitrogen prior to analysis. Percent denaturation of peptide-MHC complexes was also detected using a conformational ELISA. Off-rates were calculated by fitting data to a one-phase dissociation curve: [drawing 2] On- and off-rate half-life values (t1/2) were calculated from the rate constant (k) using the following equation: [drawing 3] To obtain a normalized stability score, the half-life values were multiplied by the Binding Score (see above) and divided by 100.

[8] = molecular target: T2, MHC-II DRB1*04:01; test: Cell-free REVEAL class II stability assay; conditions: half-life of peptide-MHC-II complex (h, capped at 120) x Binding Score / 100, conformational ELISA
Protocol: as §2

[9] = molecular target: T3, MHC-II DRB1*07:01; test: Cell-free REVEAL class II stability assay; conditions: half-life of peptide-MHC-II complex (h, capped at 120) x Binding Score / 100, conformational ELISA
Protocol: as §2

[10] = molecular target: T4, MHC-II DRB1*11:01; test: Cell-free REVEAL class II stability assay; conditions: half-life of peptide-MHC-II complex (h, capped at 120) x Binding Score / 100, conformational ELISA
Protocol: as §2

[11] = molecular target: T5, MHC-II DRB1*15:01; test: Cell-free REVEAL class II stability assay; conditions: half-life of peptide-MHC-II complex (h, capped at 120) x Binding Score / 100, conformational ELISA
Protocol: as §2

[12] = molecular target: T6, MHC-II DRB1*15:03; test: Cell-free REVEAL class II stability assay; conditions: half-life of peptide-MHC-II complex (h, capped at 120) x Binding Score / 100, conformational ELISA
Protocol: as §2

T1 sequence (P01903 26-254 limits assumed, other chains not shown): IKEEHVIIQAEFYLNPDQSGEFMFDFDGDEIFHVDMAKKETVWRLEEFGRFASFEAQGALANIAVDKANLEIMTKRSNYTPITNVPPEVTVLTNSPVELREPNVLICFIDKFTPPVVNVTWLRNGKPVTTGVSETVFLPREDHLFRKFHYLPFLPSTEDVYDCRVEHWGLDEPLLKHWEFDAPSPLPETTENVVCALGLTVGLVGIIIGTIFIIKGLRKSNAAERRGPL
T4 sequence (P01903 26-254 limits assumed, other chains not shown): as above
T6 sequence (P01903 26-254, other chains not shown): as the sequence (P01903 26-254 limits assumed, other chains not shown) above

## AHRTPMPKIQNVSSS [synthetic wild type FVIII 15 mer peptide, region of ns-SNP R776G]
[1]
  Binding Score: 0.0%
[2]
  Binding Score: 1.3%
[3]
  Binding Score: 0.0%
[4]
  Binding Score: 0.2%
[5]
  Binding Score: 0.0%
[6]
  Binding Score: 0.4%
[7]
  Stability Index: 0.0
[8]
  Stability Index: 0.1
[9]
  Stability Index: 0.0
[10]
  Stability Index: 0.0
[11]
  Stability Index: 0.1
[12]
  Stability Index: 0.1

## ASEGAEYDDQTSQRE [synthetic wild type FVIII 15 mer peptide]
[1]
  Binding Score: 0.0%
[2]
  Binding Score: 0.0%
[3]
  Binding Score: 0.0%
[4]
  Binding Score: 0.0%
[5]
  Binding Score: 0.0%
[6]
  Binding Score: 0.0%
[7]
  Stability Index: 0.0
[8]
  Stability Index: 0.0
[9]
  Stability Index: 0.0
[10]
  Stability Index: 0.0
[11]
  Stability Index: 0.0
[12]
  Stability Index: 0.0

## AVGVSYWKASEGAEY [synthetic wild type FVIII 15 mer peptide]
[1]
  Binding Score: 0.0%
[2]
  Binding Score: 2.0%
[3]
  Binding Score: 0.0%
[4]
  Binding Score: 0.3%
[5]
  Binding Score: 17.0%
[6]
  Binding Score: 0.1%
[7]
  Stability Index: 0.0
[8]
  Stability Index: 0.4
[9]
  Stability Index: 0.0
[10]
  Stability Index: 0.0
[11]
  Stability Index: 1.0
[12]
  Stability Index: 0.0

## AWRPQVNNPKEWLQV [synthetic wild type FVIII 15 mer peptide]
[1]
  Binding Score: 0.0%
[2]
  Binding Score: 17.7%
[3]
  Binding Score: 0.0%
[4]
  Binding Score: 0.1%
[5]
  Binding Score: 0.5%
[6]
  Binding Score: 0.2%
[7]
  Stability Index: 0.0
[8]
  Stability Index: 10.2
[9]
  Stability Index: 0.0
[10]
  Stability Index: 0.0
[11]
  Stability Index: 0.6
[12]
  Stability Index: 0.1

## DGAYAPVLQDFRSLN [synthetic wild type FVIII 15 mer peptide, region of ns-SNP D1241E]
[1]
  Binding Score: 11.1%
[2]
  Binding Score: 0.7%
[3]
  Binding Score: 0.1%
[4]
  Binding Score: 0.2%
[5]
  Binding Score: 0.0%
[6]
  Binding Score: 0.1%
[7]
  Stability Index: 2.0
[8]
  Stability Index: 0.1
[9]
  Stability Index: 0.0
[10]
  Stability Index: 0.0
[11]
  Stability Index: 0.0
[12]
  Stability Index: 0.0

## DIEKTDPWFAHRTPM [synthetic wild type FVIII 15 mer peptide, region of ns-SNP R776G]
[1]
  Binding Score: 0.0%
[2]
  Binding Score: 7.6%
[3]
  Binding Score: 0.0%
[4]
  Binding Score: 7.3%
[5]
  Binding Score: 2.6%
[6]
  Binding Score: 0.1%
[7]
  Stability Index: 0.0
[8]
  Stability Index: 0.4
[9]
  Stability Index: 0.0
[10]
  Stability Index: 0.2
[11]
  Stability Index: 0.2
[12]
  Stability Index: 0.0

## EWLQVDFQKTMKVTG [synthetic wild type FVIII 15 mer peptide, region of ns-SNP M2238V]
[1]
  Binding Score: 57.0% and 65.6%
[2]
  Binding Score: 26.4% and 28.1%
[3]
  Binding Score: 0.1% and 0.2%
[4]
  Binding Score: 157.4% and 152.7%
[6]
  Binding Score: 24.1% and 17.6%
[7]
  Stability Index: 33.3 and 31.3
[8]
  Stability Index: 4.8 and 5.4
[9]
  Stability Index: 0.1 and 0.2
[10]
  Stability Index: 16.4 and 16.2
[12]
  Stability Index: 2.3 and 1.6

## NPPIIARYIRLHPTH [synthetic wild type FVIII 15 mer peptide]
[1]
  Binding Score: 0.4%
[2]
  Binding Score: 5.0%
[3]
  Binding Score: 0.2%
[4]
  Binding Score: 76.5%
[6]
  Binding Score: 15.2%
[7]
  Stability Index: 0.0
[8]
  Stability Index: 3.1
[9]
  Stability Index: 0.2
[10]
  Stability Index: 6.3
[11]
  Stability Index: 1374.9
[12]
  Stability Index: 18.2

## PKEWLQVDFQKTMKV [synthetic wild type FVIII 15 mer peptide, region of ns-SNP M2238V]
[1]
  Binding Score: 36.8% and 60.5%
[2]
  Binding Score: 5.1% and 4.1%
[3]
  Binding Score: 0.0%
[4]
  Binding Score: 8.6% and 4.2%
[5]
  Binding Score: 0.4% and 0.9%
[6]
  Binding Score: 0.0%
[8]
  Stability Index: 0.3 and 0.2
[9]
  Stability Index: 0.0
[10]
  Stability Index: 0.3 and 0.2
[12]
  Stability Index: 0.0
